Marks after values point to notes of the source that are not given here.
How the values were obtained:
Type in all cases: in vivo
[1] = test system: Botrytis cinerea; assay: Test C: tomato Botrytis on tomato seedlings, sprayed the day before inoculation, visual disease rating; conditions: 100 = 100% disease control; for pest or weed control at 200 ppm: Botrytis cinerea, 120 h
Excerpt: General protocol for preparing test suspensions for Tests A-J: The test compounds were first dissolved in acetone in an amount equal to 3% of the final volume and then suspended at the desired concentration (in ppm) in acetone and purified water (50/50 mix) containing 250 ppm of the surfactant Trem® 014 (polyhydric alcohol esters). The resulting test suspensions were then used in tests A-J. Spraying a 200 ppm test suspension to the point of run-off on the test plants was the equivalent of a rate of 500 g/ha. […] The test suspension was sprayed to the point of run-off on tomato seedlings. […] A dash (-) indicates no test results. All results are for 200 ppm except where followed by “*”, which indicates 40 ppm.

[2] = test system: Puccinia recondita f. sp. tritici; assay: Test I: wheat leaf rust on wheat seedlings, sprayed the day before inoculation, visual disease rating; conditions: 100 = 100% disease control; for pest or weed control at 200 ppm: Puccinia recondita, 168 h
Excerpt: (§1) General protocol for preparing test suspensions for Tests A-J: The test compounds were first dissolved in acetone in an amount equal to 3% of the final volume and then suspended at the desired concentration (in ppm) in acetone and purified water (50/50 mix) containing 250 ppm of the surfactant Trem® 014 (polyhydric alcohol esters). The resulting test suspensions were then used in tests A-J. Spraying a 200 ppm test suspension to the point of run-off on the test plants was the equivalent of a rate of 500 g/ha. […] The test suspension was sprayed to the point of run-off on wheat seedlings. […] A dash (-) indicates no test results. All results are for 200 ppm except where followed by “*”, which indicates 40 ppm.

[3] = test system: Erysiphe graminis f. sp. tritici; assay: Test J: wheat powdery mildew on wheat seedlings, sprayed the day before inoculation, visual disease rating; conditions: 100 = 100% disease control; for pest or weed control at 200 ppm: Blumeria graminis, 168 h
Excerpt: as §1

[4] = test system: Alternaria solani; assay: Test D: tomato early blight, sprayed the day before inoculation, visual disease rating; conditions: 100 = 100% disease control; for pest or weed control at 200 ppm: Alternaria solani, 168 h
Excerpt: as §1

[5] = test system: Septoria tritici; assay: Test G: wheat leaf blotch on wheat seedlings, sprayed the day before inoculation, visual disease rating; conditions: 100 = 100% disease control; for pest or weed control at 200 ppm: Zymoseptoria tritici, 504 h
Excerpt: General protocol for preparing test suspensions for Tests A-J: The test compounds were first dissolved in acetone in an amount equal to 3% of the final volume and then suspended at the desired concentration (in ppm) in acetone and purified water (50/50 mix) containing 250 ppm of the surfactant Trem® 014 (polyhydric alcohol esters). The resulting test suspensions were then used in tests A-J. Spraying a 200 ppm test suspension to the point of run-off on the test plants was the equivalent of a rate of 500 g/ha. […] The test suspension was sprayed to the point of run-off on wheat seedlings. The following day the seedlings were inoculated with a spore suspension of Septoria tritici (the causal agent of wheat leaf blotch) and incubated in saturated atmosphere at 24° C. for 48 h, and then moved to a growth chamber at 20° C. for 19 days, after which time visual disease ratings were made. […] A dash (-) indicates no test results. All results are for 200 ppm except where followed by “*”, which indicates 40 ppm.

[6] = test system: Septoria nodorum; assay: Test F: wheat glume blotch on wheat seedlings, sprayed the day before inoculation, visual disease rating; conditions: 100 = 100% disease control; for pest or weed control at 200 ppm: Parastagonospora nodorum, 264 h
Excerpt: as §1

[7] = 40 ppm (marked *), 0 = no control
[8] = 200 ppm, 0 = no control relative to controls

## COc1cc(F)c(-n2c(Cl)nc(Br)c2-c2ccc(Cl)cc2)c(F)c1 [compound 214]
[1]; [7]
  Test C disease control rating: 100* %
[2]; [7]
  Test I disease control rating: 97* %
[3]; [7]
  Test J disease control rating: 98* %
[4]; [7]
  Test D disease control rating: 99* %
[5]; [7]
  Test G disease control rating: 94* %
[6]; [7]
  Test F disease control rating: 97* %

## Cc1nc(Cl)c(-c2c(F)cccc2Cl)n1-c1ccc(Cl)c(F)c1 [compound 244]
[1]; 200 ppm, 0 = no control
  Test C disease control rating: 100%
[2]; 200 ppm, 0 = no control
  Test I disease control rating: 99%
[3]; 200 ppm, 0 = no control
  Test J disease control rating: 100%
[4]; 200 ppm, 0 = no control
  Test D disease control rating: 100%
[5]; 200 ppm, 0 = no control
  Test G disease control rating: 96%
[6]; 200 ppm, 0 = no control
  Test F disease control rating: 99%

## Cc1nn(C)c(-c2c(F)cccc2F)c1-c1cccc(F)c1 [Compound 60, 5-(2,6-difluorophenyl)-4-(3-fluorophenyl)-1,3-dimethyl-1H-pyrazole]
[1]; [8]
  pest or weed control at 200 ppm: 81%
[2]; [8]
  pest or weed control at 200 ppm: 0%
[3]; [8]
  pest or weed control at 200 ppm: 0%
[4]; [8]
  pest or weed control at 200 ppm: 0%
[5]; [8]
  pest or weed control at 200 ppm: 2%
[6]; [8]
  pest or weed control at 200 ppm: 0%

## Cc1nn(C)c(-c2c(Cl)cccc2Cl)c1-c1ccc(Cl)cc1 [compound 87]
[1]; [8]
  Test C disease control rating: 0%
[2]; [8]
  Test I disease control rating: 27%
[3]; [8]
  Test J disease control rating: 99%
[4]; [8]
  Test D disease control rating: 0%
[5]; [8]
  Test G disease control rating: 84%
[6]; [8]
  Test F disease control rating: 0%

## CSc1ccc(F)c(-c2c(Cl)nc(Br)n2-c2ccc(Cl)cc2)c1F [compound 231]
[1]; 200 ppm, 0 = no control
  Test C disease control rating: 87%
[2]; 200 ppm, 0 = no control
  Test I disease control rating: 96%
[3]; 200 ppm, 0 = no control
  Test J disease control rating: 98%
[4]; 200 ppm, 0 = no control
  Test D disease control rating: 61%
[5]; 200 ppm, 0 = no control
  Test G disease control rating: 99%
[6]; 200 ppm, 0 = no control
  Test F disease control rating: 100%

## C=Cc1nc(C)n(-c2ccc(Cl)cc2)c1-c1c(F)cccc1F [compound 217]
[1]; [7]
  Test C disease control rating: 33* %
[2]; [7]
  Test I disease control rating: 0* %
[3]; [7]
  Test J disease control rating: 0* %
[4]; [7]
  Test D disease control rating: 57* %
[5]; [7]
  Test G disease control rating: 13* %
[6]; [7]
  Test F disease control rating: 0* %

## COc1cc(F)c(-c2c(Cl)nc(C)n2-c2cccc(F)c2)c(F)c1 [Compound 280, 4-chloro-5-(2,6-difluoro-4-methoxyphenyl)-1-(3-fluorophenyl)-2-methyl-1H-imidazole]
[1]; 200 ppm, 0 = no control
  pest or weed control at 200 ppm: 100%
[2]; 200 ppm, 0 = no control
  pest or weed control at 200 ppm: 100%
[3]; 200 ppm, 0 = no control
  pest or weed control at 200 ppm: 100%
[4]; 200 ppm, 0 = no control
  pest or weed control at 200 ppm: 100%
[5]; 200 ppm, 0 = no control
  pest or weed control at 200 ppm: 95%
[6]; 200 ppm, 0 = no control
  pest or weed control at 200 ppm: 100%

## COc1cc(F)c(-c2c(C)ncn2-c2ccc(Cl)c(F)c2)c(F)c1 [compound 46]
[1]; 40 ppm (marked *)
  Test C disease control rating: 86* %
[2]; 40 ppm (marked *)
  Test I disease control rating: 26* %
[3]; 40 ppm (marked *)
  Test J disease control rating: 78* %
[4]; 40 ppm (marked *)
  Test D disease control rating: 97* %
[5]; 40 ppm (marked *)
  Test G disease control rating: 83* %
[6]; 40 ppm (marked *)
  Test F disease control rating: 0* %

## COc1cc(F)c(-c2c(Cl)nc(Br)n2-c2ccc(Cl)nc2)c(F)c1 [compound 729]
[1]; [8]
  Test C disease control rating: 100%
[2]; [8]
  Test I disease control rating: 100%
[3]; [8]
  Test J disease control rating: 100%
[4]; [8]
  Test D disease control rating: 100%
[5]; [8]
  Test G disease control rating: 99%
[6]; [8]
  Test F disease control rating: 99%

## Fc1cc(-n2c(Br)nc(Cl)c2-c2c(F)cccc2F)ccc1Cl [compound 223]
[1]; 200 ppm, 0 = no control
  Test C disease control rating: 99%
[2]; 200 ppm, 0 = no control
  Test I disease control rating: 99%
[3]; 200 ppm, 0 = no control
  Test J disease control rating: 100%
[4]; 200 ppm, 0 = no control
  Test D disease control rating: 100%
[5]; 200 ppm, 0 = no control
  Test G disease control rating: 98%
[6]; 200 ppm, 0 = no control
  Test F disease control rating: 60%

## Cc1ccc(-n2c(Cl)nc(Cl)c2-c2c(F)ccc(F)c2F)cc1C [compound 226]
[1]; 200 ppm, 0 = no control
  Test C disease control rating: 76%
[2]; 200 ppm, 0 = no control
  Test I disease control rating: 0%
[3]; 200 ppm, 0 = no control
  Test J disease control rating: 95%
[4]; 200 ppm, 0 = no control
  Test D disease control rating: 67%
[5]; 200 ppm, 0 = no control
  Test G disease control rating: 88%
[6]; 200 ppm, 0 = no control
  Test F disease control rating: 0%

Source: patent US20110045101A1, “FUNGICIDAL SUBSTITUTED AZOLES” (E.I. Du Pont De Nemours and Company, priority 2009, published 2011)
